Assay results as given in PubChem BioAssay AID256 (DTP/NCI, 2004).
Where “and” joins values, the source holds several entries; their conditions need not be identical. Equal entries are not always repeated. Toxic doses and inconclusive results are not listed. How the source made its calls: active means survival T/C of 150% or more; inactive means T/C below 125% in these data.

Tested on: CD2F1 mice, L1210 leukemia ip, survival T/C
Assay: NCI In Vivo Anticancer Drug Screen. Data for tumor model L1210 Leukemia (intraperitoneal) in CD2F1 (CDF1) mice
Settings: higher = longer survival
Outline: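 Vehicle-treated tumor-bearing mice served as controls (C) for compound-treated mice (T). Reported figure is T divided by C.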

[1] = endpoint: mean survival time, dose: 6.25 mg/kg/injection, schedule: Q01DX009 (ip), vehicle: saline with Tween-80
[2] = endpoint: mean survival time, dose: 12.5 mg/kg/injection, schedule: Q01DX009 (ip), vehicle: saline with Tween-80
[3] = endpoint: mean survival time, dose: 25.0 mg/kg/injection, schedule: Q01DX009 (ip), vehicle: saline with Tween-80
[4] = endpoint: mean survival time, dose: 100.0 mg/kg/injection, schedule: Q04DX003 (ip), vehicle: saline with Tween-80
[5] = endpoint: mean survival time, dose: 200.0 mg/kg/injection, schedule: Q04DX003 (ip), vehicle: saline with Tween-80
[6] = endpoint: mean survival time, dose: 400.0 mg/kg/injection, schedule: Q04DX003 (ip), vehicle: saline with Tween-80
[7] = endpoint: mean survival time, dose: 100.0 mg/kg/injection, schedule: Q01DX009 (ip), vehicle: saline with Tween-80
[8] = endpoint: mean survival time, dose: 100.0 mg/kg/injection, schedule: Q04DX003 (ip), vehicle: saline

Measured: T/C

COc1cc(CNC(=O)CCCC2CCC2)ccc1O
inactive: endpoint: mean survival time, dose: 3.13 mg/kg/injection, schedule: Q01DX009 (ip), vehicle: saline with Tween-80 96 % of control | [1] 94 % of control and 97 % of control | endpoint: mean survival time, dose: 6.25 mg/kg/injection, schedule: Q04DX003 (ip), vehicle: saline with Tween-80 96 % of control | [2] 86 % of control and 97 % of control | endpoint: mean survival time, dose: 12.5 mg/kg/injection, schedule: Q04DX003 (ip), vehicle: saline with Tween-80 101 % of control | [3] 100 % of control | endpoint: mean survival time, dose: 25.0 mg/kg/injection, schedule: Q04DX003 (ip), vehicle: saline with Tween-80 95 % of control

Cc1cc(C)nc(N)n1
inactive: [4] 95 % of control | [5] 98 % of control | [6] 98 % of control

CC#CC(=O)SCCNC(=O)CCNC(C)=O
inactive: [2] 112 % of control | [3] 102 % of control | endpoint: mean survival time, dose: 25.0 mg/kg/injection, schedule: Q04DX003 (ip), vehicle: saline 105 % of control | endpoint: mean survival time, dose: 50.0 mg/kg/injection, schedule: Q01DX009 (ip), vehicle: saline with Tween-80 108 % of control | endpoint: mean survival time, dose: 50.0 mg/kg/injection, schedule: Q04DX003 (ip), vehicle: saline 112 % of control | [7] 119 % of control | [8] 103 % of control

CCCCNc1ccc2nnc(C)n2n1
inactive: endpoint: median survival time, dose: 50.0 mg/kg/injection, schedule: Q01DX005 (ip), vehicle: DMSO 100 % of control and 101 % of control | endpoint: median survival time, dose: 100.0 mg/kg/injection, schedule: Q01DX005 (ip), vehicle: DMSO 97 % of control and 100 % of control | endpoint: median survival time, dose: 200.0 mg/kg/injection, schedule: Q01DX005 (ip), vehicle: DMSO 104 % of control

CC(=O)OC1CC(C)CCC1C(C)C (centres undefined)
inactive: [4] 113 % of control | [5] 106 % of control

Cc1nc2c(n1C)C(=O)c1ccccc1C2=O
inactive: [8] 101 % of control

CCCCCCCCCCCCCCCCOc1ccc(S(=O)(=O)NC2CCCCC2)cc1[N+](=O)[O-]
inactive: [4] 90 % of control | [5] 93 % of control | [6] 94 % of control

c1ccc(-c2ccc(C3=NC(c4ccccc4)N4C3C4c3ccccc3)cc2)cc1 (centres undefined)
inactive: endpoint: mean survival time, dose: 6.25 mg/kg/injection, schedule: Q01DX001 (ip), vehicle: saline with Tween-80 103 % of control | [1] 91 % of control | endpoint: mean survival time, dose: 12.5 mg/kg/injection, schedule: Q01DX001 (ip), vehicle: saline with Tween-80 86 % of control | [2] 94 % of control | endpoint: mean survival time, dose: 25.0 mg/kg/injection, schedule: Q01DX001 (ip), vehicle: saline with Tween-80 92 % of control

O=S1(=O)CCCC1C(O)c1ccccc1 (centres undefined)
inactive: endpoint: mean survival time, dose: 100.0 mg/kg/injection, schedule: Q04DX003 (ip), vehicle: other 100 % of control | endpoint: mean survival time, dose: 200.0 mg/kg/injection, schedule: Q04DX003 (ip), vehicle: other 95 % of control | endpoint: mean survival time, dose: 400.0 mg/kg/injection, schedule: Q04DX003 (ip), vehicle: other 95 % of control

O=C([O][Sb]([O]C(=O)C(Br)Br)([c]1ccccc1)([c]1ccccc1)[c]1ccccc1)C(Br)Br
inactive: [4] 95 % of control | [5] 89 % of control | [6] 95 % of control

Oc1ccccc1C1=CCCCCC1
inactive: [8] 95 % of control | endpoint: mean survival time, dose: 200.0 mg/kg/injection, schedule: Q04DX003 (ip), vehicle: saline 101 % of control | endpoint: mean survival time, dose: 400.0 mg/kg/injection, schedule: Q04DX003 (ip), vehicle: saline 104 % of control

Nc1nc(N)c(N=Nc2cccc(S(=O)(=O)O)c2)c(N)n1
inactive: [4] 107 % of control | [5] 101 % of control | [6] 101 % of control

O=C(Nc1ccc(Nc2ccc(NC(=O)c3ccccc3)c3c2C(=O)c2ccccc2C3=O)c2c1C(=O)c1ccccc1C2=O)c1ccccc1
inactive: [7] 95 % of control | [4] 108 % of control | endpoint: mean survival time, dose: 200.0 mg/kg/injection, schedule: Q01DX009 (ip), vehicle: saline with Tween-80 95 % of control | [5] 100 % of control | endpoint: mean survival time, dose: 400.0 mg/kg/injection, schedule: Q01DX009 (ip), vehicle: saline with Tween-80 100 % of control | [6] 102 % of control
